In paper PMC10733463, “Berberine-microbiota interplay: orchestrating gut health through modulation of the gut microbiota and metabolic transformation into bioactive metabolites” (Frontiers in Pharmacology, 2023):

How the values were obtained:
[1] = UPLC-MS/MS quantification of berberine and metabolites in plasma; type: in vivo, Ross 308 broiler chickens; conditions: chickens fed 0.1, 0.5 or 1 g berberine/kg feed for 21 days; LOQ 0.1 ng/mL
Source text: (§1) The study was undertaken following the guidelines of the ethics committee of the Faculty of Veterinary Medicine and Bioscience Engineering, Ghent University, in accordance with the EU Directive 2010/63/EU. One-day-old Ross 308 male broilers were obtained from a local hatchery and housed in pens on wood shavings. They were allotted into 4 groups, with three replicate pens per group each housing 8 chickens. The animals were not vaccinated. Water and commercial starter feed (day 1–12, FARM 1 Mash, Country’s Best, Versele Laga, Deinze, Belgium) or grower (day 13–21, FARM 2 mash, Country’s Best, Versele Laga, Deinze, Belgium) were provided ad libitum. The control group received the standard non-supplemented diets, whereas the chickens in other groups were fed the same feed supplemented with 0.1, 0.5 or 1 g berberine/kg feed throughout the whole trial period. At day 21, 4 birds per pen were weighted then euthanized by sodium pentobarbital injection for sampling. Individual jejunal, ileal, caecal and colonic contents were stored at −20°C for microbiota composition analysis (16S rRNA gene sequencing). Additionally, ileal and caecal content samples were collected and stored at −20°C for berberine and berberine-derived metabolite quantification. Duodenal tissue samples were collected and fixed in 4% phosphate buffered formaldehyde for histological analysis. Blood samples were collected in heparin tubes and centrifuged at 524 g for 10 min to recover the plasma fraction, which was further mixed with 17 mg/mL L-ascorbic acid for dihydroberberine stabilization, and stored at −20°C for berberine and berberine-derived metabolite quantification.
(§2) The column temperature was maintained at 25°C. The autosampler temperature was set at 10°C.
A 137.5 µL plasma sample containing 17 mg/mL L-ascorbic acid was used for sample extraction. The ascorbic acid solution was added to prevent oxidation of dihydroberberine to berberine during sample storage ([Feng et al., 2015]). The plasma sample was transferred to an OstroTM 96 well-plate (25 mg) (Waters). Subsequently, 50 µL Milli-Q water and 25 µL of an internal standard solution containing 100 ng/mL of both berberine-d6 and tetrahydropalmatine were added. A 640 µL volume of 1% (v/v) formic acid solution in acetonitrile (1/3 ratio) was added, followed by gentle mixing. Vacuum was applied on the Ostro™ plate for 5 min and the eluate was collected in a 2 mL square 96-well collector plate. The sample was transferred in a glass tube and evaporated at 40°C under a gentle stream of nitrogen in a Pierce (Rockford, United States) Reacti-Therm III™ Heating Module and Reacti-Vap™ III Module. The dried sample extract was reconstituted in 500 µL Milli-Q water, followed by injection of a 5 µL sample aliquot onto the UPLC-MS/MS apparatus. Quantification was based on the ratio of the analyte peak area compared to the peak area of the internal standard berberine-d6.
Calibration standards and quality control samples were prepared as follows: 137.5 µL of blank plasma stabilized with 17 mg/mL L-ascorbic acid were supplemented with 25 µL mixed working solutions of berberine and metabolites (except dihydroberberine) at different levels, 25 µL of dihydroberberine working solution, stabilized with 17 mg/mL L-ascorbic acid, at different levels and 25 µL of an internal standard solution containing 100 ng/mL of both berberine-d6 and tetrahydropalmatine. The calibration curve was in the 0.1–100 ng/mL range, including 0.1, 0.5, 1, 2.5, 5, 10, 25, […], 50 and 100 ng/mL levels.
The UPLC-MS/MS analysis method for the quantification of berberine and berberine-derived metabolites both in plasma and ileal/caecal intestinal content was validated to the guidelines of the European Medicines Agency, i.e., of the Committee for Veterinary Medicinal Products (EMEA/CVMP/VICH/463202/2009) and of the Committee for Medicinal Products for Human Use (EMEA/CHMP/EWP/192217/20), and in accordance with the EU Directive 2002/657/EC. […]

[2] = UPLC-MS/MS quantification of berberine and metabolites in ileal and caecal content; type: in vivo, Ross 308 broiler chickens; conditions: 21 days
Source text: as §1, §2
250 mg of ileal or caecal content was weighed in a 15 mL polypropylene centrifuge tube and 250 µL of ascorbic acid 170 mg/mL solution was added for stabilization of dihydroberberine, followed by brief vortexing. Subsequently, 25 µL of an internal standard solution containing 250 μg/mL of berberine-d6 and 2.5 μg/mL tetrahydropalmatine were added, followed by brief vortexing. A 2.5 mL volume of extraction solvent was then added, consisting of a 1% (v/v) formic acid solution in methanol. The sample was put on a rotary shaker set at 80 rpm for 20 min, followed by centrifugation (3,720 g, 10 min, 4°C). The supernatant was then diluted, by a factor 5 for measurement of low abundance components, and by a factor 2,000 for measurement of high abundance components. The 1/5 diluted sample extract was prepared directly in an autosampler vial as follows: 200 µL sample extract were mixed with 100 µL ascorbic acid 170 mg/mL solution and 700 µL Milli-Q water. For the 1/2,000 diluted sample extract, an intermediate 1/100 sample dilution was prepared by combining 500 µL sample extract and 49.5 mL of Milli-Q water. 50 μL was then transferred in an autosampler vial followed by the addition of 950 µL of Milli-Q water. For both dilutions, a 5 µL sample aliquot was injected onto the UPLC-MS/MS apparatus. Quantification was based on the ratio of the analyte peak area compared to the peak area of the internal standard tetrahydropalmatine for 1/5 diluted sample extracts, and on the ratio of the analyte peak area compared to the peak area of the internal standard berberine-d6 for 1/2,000 diluted sample extracts.
Calibration standards and quality control samples were prepared as follows: 250 mg of blank ileal or caecal content were supplemented with 250 µL of ascorbic acid 170 mg/mL solution, 25 µL mixed solution of berberine and metabolites (with the exception of dihydroberberine) at different levels, 25 µL of dihydroberberine solution, stabilized with 17 mg/mL ascorbic acid, at different levels and 25 µL of an internal standard solution containing 0.625 μg/mL of berberine-d6 and 2.5 μg/mL tetrahydropalmatine. The calibration curve was in the 62.5–5,000 ng/g range, and included 62.5, 125, 250, 500, 1,000, 2,500, and 5,000 ng/g levels. […]

[3] = system: Anaerostipes butyraticus (35–7); conditions: 35-7, chicken, 10 µg/mL, pH 6
Method: (§3) Six strains were tested for their ability to convert berberine into berberine-demethylated metabolites. […] Strains were sub-cultured overnight in M2GSC medium pH 6. The next day, caecal content from a 3-week-old broiler chicken was sampled in anaerobic conditions and 1:1,000 diluted in M2GSC medium pH 6 containing 10 μg/mL berberine. Caecal mixtures were enriched with 1:100 diluted overnight cultures of single bacteria, or with M2GSC (control), and incubated in a 24-well plate, for 48 h. […] Samples were collected and processed as described before. Each bacterial strain was tested in triplicate at 37°C–40°C under anaerobic conditions.
(§4) The UPLC instrument consisted of an Acquity H-Class Quaternary Solvent Manager and an Acquity FTN Sample Manager (Waters, Berchem, Belgium). For chromatographic separation, an Acquity UPLC® HSS T3 column (1.8 µm, 100 mm × 2.1 mm i.d.) was used, protected by a precolumn of the same type (VanGuardTM, 5 mm × 2.1 mm i.d.), both from Waters. […] The column temperature was maintained at 25°C. The autosampler temperature was set at 10°C. The UPLC effluent was sent from 1.2 min to 9.5 min by use of a divert valve to a Xevo TQ-S® triple quadrupole mass spectrometer from Water, equipped with an ESI ion source operating in the positive ionization mode from. The UPLC-MS/MS analysis was run under control of MassLynx software (v4.1), which was used for subsequent data processing as well. For the injection of 1/5 diluted intestinal content samples (see section Preparation of intestinal content samples (ileum and caecum)), the divert valve was used in addition from 7.1 min to 8.4 min to deviate the high amount of berberine and associated IS berberine-d6 eluting in that time window from the UPLC column directly to the waste, rather than to the MS detector to avoid oversaturation of the instrument, influencing subsequent sample extract injections at well. Operating conditions for the ESI source used in the positive ionization mode were optimized by direct infusion of all individual components in combination with the mobile phase at 50% A/50% B delivered at a flow rate of 0.3 mL/min. The following tune parameters were used for detection of all components: capillary voltage, 3 kV, cone voltage, 10 V, source offset, 50 V, source temperature, 150°C, desolvation temperature, 500°C, desolvation gas flow, 800 L/h, cone gas flow, 150 L/h, collision gas flow, 0.2 mL/min, ion energy 1 and 2, 0.5, LM 1 and LM 2 resolution, 3, HM 1 and HM 2 resolution, 15. Components were detected in MS/MS mode using component specific MRM (Multiple Reaction Monitoring) transitions (Supplementary Table S1). Since a commercial standard of thalifendine was not available, MS/MS detection parameters and calibration of berberrubine were used for the detection and quantification of thalifendine, which is a reasonable approach, since both compounds are isomers. No commercial reference standards were available for phase II metabolites, therefore “calculated” MRM transitions were defined as follows: [M + -Gluc] > M+ for glucuronide forms and [M + -SO3] > M+ for sulfate forms, where the loss of glucuronic acid or sulfate corresponded to a mass shift of 176 Da or 80 Da respectively. Phase II metabolites were quantified relatively using the berberine calibration curve ([Wang et al., 2017a]; [Kwon et al., 2020]).

B. coccoides (DSM 935) [4] = conditions: DSM 935, chicken, 10 µg/mL, pH 6
Method: as §3, §4

[5] = system: Blautia hansenii (DSM 20583); conditions: DSM 20583, chicken, 10 µg/mL, pH 6
Method: as §3, §4

[6] = system: Blautia hydrogenotrophica (DSM 10507); conditions: DSM 10507, chicken, 10 µg/mL, pH 6
Method: as §3, §4

Blautia luti (DSM 14534) = conditions: DSM 14534, chicken, 10 µg/mL, pH 6
Method: as §3, §4

[7] = system: Eubacterium limosum (LMG 28910); conditions: LMG 28910, chicken, 10 µg/mL, pH 6
Method: as §3, §4

B. coccoides (DSM 935) [8] = conditions: Blautia coccoides, 10 µg/mL, pH 6
[9] = rats, oral administration of berberine; cited from earlier work
Caco-2 monolayers = system: Caco-2 monolayers; set-up: method as in Zhang et al., 2019; conditions: in vitro, among berberine metabolites; ref Zhang et al., 2019; cited from earlier work

| SMILES | Detection in plasma [1] | Ratio caecum / ileum (concentration) ([2]; 0.1 g berberine/kg feed) | Ratio caecum / ileum (concentration) ([2]; 0.5 g berberine/kg feed) | Ratio caecum / ileum (concentration) ([2]; 1 g berberine/kg feed) | Log2(fold change) of metabolite response at 48 h, culture with bacteria over control (berberine-medium + microbiota) [3] | Log2(fold change) of metabolite response at 48 h, culture with bacteria over control (berberine-medium + microbiota) (B. coccoides (DSM 935) [4]) | Log2(fold change) of metabolite response at 48 h, culture with bacteria over control (berberine-medium + microbiota) [5] | Log2(fold change) of metabolite response at 48 h, culture with bacteria over control (berberine-medium + microbiota) [6] | Log2(fold change) of metabolite response at 48 h, culture with bacteria over control (berberine-medium + microbiota) (Blautia luti (DSM 14534)) | Log2(fold change) of metabolite response at 48 h, culture with bacteria over control (berberine-medium + microbiota) [7] | Log2(fold change) of metabolite response at 48 h, B. coccoides pure culture over berberine-medium (B. coccoides (DSM 935) [8]) | Amount quantified in feces [9] [%] | Permeability across Caco-2 monolayers (Caco-2 monolayers) |
| --- | --- | --- | --- | --- | --- | --- | --- | --- | --- | --- | --- | --- | --- |
| COc1cc2c(cc1OS(=O)(=O)[O-])-c1cc3ccc(OC)c(OC)c3c[n+]1CC2 [columbamine-sulfate] | not detected |  |  |  |  |  |  |  |  |  |  |  |  |
| COc1cc2c(cc1O)-c1cc3ccc(OC)c(OC)c3c[n+]1CC2 [Columbamine, columbamine] | below LOQ | 0.27 | 0.32 | 0.44 |  |  |  |  |  |  |  |  |  |
| COc1ccc2cc3[n+](cc2c1OC)CCc1cc(O)c(O)cc1-3 [Demethyleneberberine] |  | 15.66 | 30.48 | 32.10 | 0.15 | 1.07 | -0.02 | -3.33e-003 | 1.34 | 0.21 | 1.71 | 1.49 | most permeable |
| COc1c(O)ccc2cc3[n+](cc12)CCc1cc2c(cc1-3)OCO2 [Thalifendine] |  | 6.68 | 29.03 | 21.17 | 0.21 | 4.46 | 0.34 | 0.26 | -1.30 | 1.37 | 9.30 |  | most permeable |
